As a reminder, the Papp is the rate of passage across a membrane or cell layer, normalised by area and donor concentration. A higher Papp goes with ready permeation. One may read the chromatographic logD as a lipophilicity value derived from retention on a column. Usually fraction unbound stands for the share of the substance not bound to proteins or other matrix.

A short description of one data set: PAMPA permeability. Type of data set: in vitro ADME. Particulars: for Papp at 5 h, 10 µM: PAMPA, pH 7.4, pH 7.4. As to the method:
Solubility test samples were prepared by adding 5 μL stock to PBS pH 7.4 (195 μL). […] […] vacuum […] (Millipore Multiscreen HTS fi lter, 96-well format) to remove any undissolved material. The […] analyzed for dissolved drug compound using a truncated UHPLC methodology. A calibration solution was prepared for each test compound. […] Aliquots of the test sample […] (0.4 and 5.0 μL) were injected onto the UHPLC system and the resultant test compound peak areas quantifi ed […] PAMPA per meability As previously described.(28) The permeability assay was performed using a 96-well precoated BD Gentest PAMPA plate (BD Biosciences). Each well was divided into two chambers: donor and acceptor, separated by a lipid-oil-lipid trilayer constructed in a porous fi lter. […] Stock solutions (5 mM) of the compound were prepared in DMSO. […] The compound dissolved in phosphate buffered saline was added to the donor side of the membrane, and phosphate-buffered saline without the compound was added to the acceptor side. The PAMPA plate was left at room temperature for 5 h then an aliquot (100 μL) was removed from both acceptor and donor compartments and mixed with acetonitrile (80 μL) containing an internal standard: donepezil at 50 ng/mL. The samples were centrifuged (10 min, 5 °C, 3270×g) to sediment lipids and sealed prior to UPLC-MS/MS analysis using a Quattro Premier XE (Waters Corp, USA). Recovery of the compound from donor and acceptor wells was calculated, and data were only accepted when recovery exceeded 70%.
(The PAMPA barrier holds no transporters, so it reflects passive diffusion.)

The next data set has as its system wild type C. parvum. Put plainly: Neonatal calf efficacy model. Type of data set: in vivo. Particulars: for calves receiving treatment that shed Cryptosporidium after day 16 PI: 15 mg/kg BID 7 days, n=7; for Cryptosporidium shedding: 15 mg/kg BID oral 7 days from day 1 PI, to day 16 PI; for fecal scores: 15 mg/kg BID, 0 = normal, 3 = severe, treatment period. As to the method: Calves were enrolled at birth and challenged with wild type C. parvum oocysts (Fig. 5A). DDD489 and DDD508 were administered orally at 15 mg/kg BID for 7 days, beginning on day 1 PI. Blood was sampled and mean free plasma concentration was determined (Fig. S10). Fecal samples were collected from individual animals and parasite shedding was quantified (oocyst/g) by microscopy and quantitative PCR. Fecal samples were collected daily until day 21 PI to monitor for parasite recrudescence. To determine the impact of our late lead compounds on reducing symptoms of cryptosporidiosis, several clinical observations were scored throughout the study.
Calves (Holstein Friesian, British Blue Cross, Limousin Cross, or Aberdeen Angus Cross) were born at commercial dairy farms, provided a colostrum feed, and transported to Moredun Scientific. Calves were enrolled in the study if >30 kg at birth and in good health. Enrolment was staggered due to timing of births.
Calves were assigned to control or treatment groups (7 calves per group) and housed in separate barns (within each barn calves were housed in adjacent, individual pens). Male calves were used in the DDD489 study, and both male and female calves were used in the DDD508 study (control group: 3 females/4 males; treatment group: 2 females/5 males). Calves were challenged on day 1 post birth with 5x10^5 C. parvum oocysts by oral gavage (Sterling Labs for DDD489; Waterborne Inc. for DDD508).
Starting day 1 PI, vehicle (in 0.5% HPMC, 0.4% Tween 80, 0.5% Benzyl alcohol in sterile water) or treatment (DDD489 or DDD508) were administered by oral gavage twice daily immediately prior to milk feeds, and at least 8 hours apart (± 30 minutes). Vehicle was delivered at a set volume (22.6 ml per occasion) and test compound at 15 mg/kg (maximum volume of 20 ml per occasion; prepared in vehicle). Blood samples were collected from all animals prior to morning treatment on Day 1, then 5 (± 2) minutes, 15 (± 2) minutes, 30 (± 5) minutes, 1, 2, 4, 8 and 24 hours (± 10 minutes) post first daily dose. This sample schedule was repeated on Day 7 for the same animals. Blood samples were processed to plasma. Weight was measured and clinical observations recorded as indicated. Fecal samples were collected daily throughout the study. […]
was limited to staff involved in the study, and separate PPE was dedicated for use with each […]
Specified staff were involved in preparing the vehicle and treatment material and were not involved in its administration. These staff were not involved in taking and recording clinical observations or collecting samples. Staff that administered the vehicle and treatment materials were blinded to the material identity. If staff involved in administration of materials or sample collection became “unblinded” at any point in the study, they were immediately removed from […]
Quantification of Cryptosporidium shedding from calf samples (Moredun Scientific and […]
Oocyst per gram from calf fecal samples was determined by microscopy (performed at MRI) and by qPCR (Pawlowic Lab at the University of Dundee). For microscopy 0.1 g of fecal material was resuspended in 10 ml PBS. 100 microliters of diluted fecal material was incubated with 15 microliters Cryptosporidium FITC Stain (CellLabs) and incubated at 37 °C for 15 minutes. Samples were then mounted on a grided slide and counted using a fluorescent microscope. For qPCR, fecal samples were continuously stored in 4°C and transported to the University of Dundee. DNA was extracted from 100mg of fecal material (unless otherwise noted) using the Zymo Quick-DNA Fecal/Soil Microbe Miniprep Kit (Cambridge Bioscience, catalog #D6010). Once material was suspended in Bashing Bead Buffer we modified the protocol slightly by adding 5 freeze/thaw cycles.(32) DNA was stored in 4°C to await qPCR.
For the standard curve, known amounts of wild-type oocysts were added to 100 mg of uninfected murine fecal sample and DNA was extracted using the protocol detailed above. We […]

For data set [1] the following is noted: NOD SCID Gamma mice at MED 30 mg/kg, first and last days of treatment. The source says:
Figure S6. Blood concentration time profiles for late lead compounds in infected mice.
Mean free blood concentration time profiles following oral administration of late lead compounds to NOD SCID Gamma (A a n d B ) and IFN-Gamma KO (C and D) mice twice daily for 7 days as described in Fig. 1C and Fig. 4A) respectively. Data are mean ± SD (3 mice per group). Blood samples were collected on the first day (squares) and last day (circles) of compound dosing (Day 7 and 13 PI for NOD SCID Gamma, Day 6 and 13 for IFN-Gamma KO). Total drug concentrations were corrected for fraction unbound (fu) in PPB assay […]
mg/kg) was administered to NOD SCID Gamma mice. (B) DDD508 (10 mg/kg) was administered to NOD SCID Gamma mice. Blood concentrations were scaled to 30 mg/kg for comparison, assuming dose linearity. (C) DDD489 (50 mg/kg) was administered to IFN-Gamma KO mice. (D) DDD508 (50 mg/kg) was administered to IFN-Gamma KO mice.
(1 picture or pasted object on this page, not shown here)

A short description of a further data set: CHIlogD. In kind it is physicochemical. The note with it: pH 7.4.
The nature of data set [2]: Plasma protein binding, mouse. The note with it: mouse PPB assay, read-out: fraction unbound (fu). In kind it is in vitro ADME.
Data set [3] has as its system Salmonella typhimurium (TA98, TA100, TA1535, and TA97a) and Escherichia coli WP2 uvrA. Put plainly: Mini-Ames. Type of data set: cell-based. Particulars: presence and absence of S9 mix.

In the case of `Nc1nc2c(c(C(F)(F)F)n1)C(=O)N(CC1CCCC(C(F)(F)F)C1)C2` (centres unmarked) [DDD489], the Papp at 5 h, 10 µM in the data set “PAMPA permeability” amounted to 17.1 ×10⁻⁶ cm/s. For the same compound, in the data set on wild type C. parvum, the “calves receiving treatment that shed Cryptosporidium after day 16 PI” value was 3/7, the Cryptosporidium shedding result is listed as “did not shed any detectable amount of Cryptosporidium” and the fecal scores entry is listed as “normal to mild range”. In data set [1], the “free blood concentration relative to EC90” value is recorded as “only above the EC90 for around two hours”. In “CHIlogD”, this compound gave a chromatographic logD of 2.8. The fraction unbound in data set [2] is 0.16. Besides, the “Mini-Ames (4 strains ± S9)” value in data set [3] was “Negative”.

`O=C(NCC1(O)CCCCC1)c1cc(=O)c2cc(O)ccc2o1` [DDD508]: in the data set “PAMPA permeability”, the Papp at 5 h, 10 µM was 0.69 ×10⁻⁶ cm/s. The “PAMPA Papp” value in “PAMPA permeability” (pH 7.4) was found to be 0.7 ×10⁻⁶ cm/s. For the same compound, in the data set on wild type C. parvum, the “calves receiving treatment that shed Cryptosporidium after day 16 PI” value is 4/7, the Cryptosporidium shedding entry was “did not shed any detectable amount of Cryptosporidium” and the fecal scores entry was “normal to mild range”. In addition, in data set [1], the “free blood concentration relative to EC90” value is “only above the EC90 for around two hours”. In addition, the chromatographic logD in “CHIlogD” was 1. Besides, in data set [2], the fraction unbound amounted to 0.6. In addition, the “Mini-Ames (4 strains ± S9)” value in data set [3] was “Negative”.

The record behind these values is publication PMC7617456, “Cryptosporidium lysyl-tRNA synthetase inhibitors define the interplay between solubility and permeability required to achieve efficacy” (Science translational medicine, 2024).
